According to PMC8881610 (Nature Communications, 2022):
Numbering of substitutions follows the chain as printed.

Experiments:
Experiment in all cases: Whole-cell binding assay, competition with 125I-GIP1-42
Set-up in all cases: acylated tirzepatide to the full-length or modified; Flag; expressed in transfected cells
GIPR [1] = target: T1, GIPR (Homo sapiens, UniProt P48546, D191A); details: GIPR D191A, CHO-K1
T1 sequence (P48546 22-466 D191A): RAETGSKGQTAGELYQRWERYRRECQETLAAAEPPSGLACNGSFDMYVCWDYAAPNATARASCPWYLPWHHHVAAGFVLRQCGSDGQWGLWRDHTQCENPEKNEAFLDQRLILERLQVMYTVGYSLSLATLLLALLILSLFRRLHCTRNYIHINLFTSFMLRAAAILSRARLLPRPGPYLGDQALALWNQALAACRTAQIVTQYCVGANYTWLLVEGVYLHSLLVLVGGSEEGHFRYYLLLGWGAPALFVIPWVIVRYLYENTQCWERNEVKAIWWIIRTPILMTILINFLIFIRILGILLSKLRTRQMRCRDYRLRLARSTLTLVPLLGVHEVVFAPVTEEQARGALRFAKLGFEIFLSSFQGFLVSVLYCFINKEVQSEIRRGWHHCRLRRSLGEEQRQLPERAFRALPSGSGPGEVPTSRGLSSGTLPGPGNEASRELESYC
Outline: (§1)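 Transiently transfected CHO-K1 cells expressing WT or mutant GIPR were washed in F-12 with 0.1% BSA or 0.1% casein and 33 mM HEPES, then incubated 2 h at 37 °C. After ice-cold PBS washes, cells were lysed and bound radioactivity counted (CPM).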

GIPR [2] = target: T2, GIPR (Homo sapiens, UniProt P48546, T345F); details: GIPR T345F; CHO-K1; read-out: binding pIC50 (converted)
T2 sequence (P48546 22-466 T345F): T1 sequence (P48546 22-466 D191A) with A170D, T324F
Outline: as §1

GIPR [3] = target: T3, GIPR (Homo sapiens, UniProt P48546, W90A); details: GIPR W90A, CHO-K1
T3 sequence (P48546 22-466 W90A): T1 sequence (P48546 22-466 D191A) with W69A, A170D
Outline: as §1

GIPR [4] = target: T4, GIPR (Homo sapiens, UniProt P48546, Y141A); details: GIPR Y141A, CHO-K1
T4 sequence (P48546 22-466 Y141A): T1 sequence (P48546 22-466 D191A) with Y120A, A170D
Outline: as §1

[5] = read-out: binding pIC50 (converted)

Row | Structure (SMILES) | binding Span (GIPR [1]) | IC50 (GIPR [1]; [5]) | IC50 (GIPR [2]) | binding Span (GIPR [3]) | IC50 (GIPR [3]; [5]) | binding Span (GIPR [4]) | IC50 (GIPR [4]; [5]) | binding pIC50 (GIPR [1]) | binding pIC50 (GIPR [3]) | binding pIC50 (GIPR [4])
1 | CCCCCCCCCCCCCCCC(=O)N[C@@H](CCC(=O)NCCCC[C@H](NC(=O)[C@H](CC(=O)O)NC(=O)[C@H](CO)NC(=O)[C@@H](NC(=O)[C@H](Cc1ccccc1)NC(=O)[C@@H](NC(=O)CNC(=O)[C@H](CCC(N)=O)NC(=O)C(C)(C)NC(=O)[C@@H](N)Cc1c[nH]cn1)[C@@H](C)O)[C@@H](C)O)C(=O)N[C@@H](CO)C(=O)N[C@@H](CCCCN)C(=O)N[C@@H](Cc1ccc(O)cc1)C(=O)N[C@@H](CC(C)C)C(=O)N[C@@H](CC(=O)O)C(=O)N[C@@H](CCC(=O)O)C(=O)N[C@@H](CCCNC(=N)N)C(=O)N[C@@H](C)C(=O)N[C@@H](C)C(=O)N[C@@H](CCC(N)=O)C(=O)N[C@@H](CC(=O)O)C(=O)N[C@@H](Cc1ccccc1)C(=O)N[C@H](C(=O)N[C@@H](CCC(N)=O)C(=O)N[C@@H](Cc1c[nH]c2ccccc12)C(=O)N[C@@H](CC(C)C)C(=O)N[C@@H](CC(C)C)C(=O)N[C@@H](CC(=O)O)C(=O)NCC(=O)NCC(=O)N1CCC[C@H]1C(=O)N[C@@H](CO)C(=O)N[C@@H](CO)C(=O)NCC(=O)N[C@@H](C)C(=O)N1CCC[C@H]1C(=O)N1CCC[C@H]1C(=O)N1CCC[C@H]1C(=O)N[C@@H](CO)C(N)=O)C(C)C)C(=O)O [Peptide 20] | 12.29 ± 1.02 % WT | 9.12 nM | 24 nM | 3.87 ± 1.12 % WT | 2.69 nM | 14.88 ± 1.95 % WT | 2.4 nM | – | – | –
2 | CC[C@H](C)[C@H](NC(=O)[C@H](CC(C)C)NC(=O)[C@H](Cc1c[nH]c2ccccc12)NC(=O)[C@H](CCC(N)=O)NC(=O)[C@@H](NC(=O)[C@H](Cc1ccccc1)NC(=O)[C@H](C)NC(=O)[C@H](CCCCNC(=O)COCCOCCNC(=O)COCCOCCNC(=O)CC[C@H](NC(=O)CCCCCCCCCCCCCCCCCCC(=O)O)C(=O)O)NC(=O)[C@H](CCC(N)=O)NC(=O)[C@H](C)NC(=O)[C@@H](NC(=O)[C@H](CCCCN)NC(=O)[C@H](CC(=O)O)NC(=O)[C@H](CC(C)C)NC(=O)C(C)(C)NC(=O)[C@@H](NC(=O)[C@H](CO)NC(=O)[C@H](Cc1ccc(O)cc1)NC(=O)[C@H](CC(=O)O)NC(=O)[C@H](CO)NC(=O)[C@@H](NC(=O)[C@H](Cc1ccccc1)NC(=O)[C@@H](NC(=O)CNC(=O)[C@H](CCC(=O)O)NC(=O)C(C)(C)NC(=O)[C@@H](N)Cc1ccc(O)cc1)[C@@H](C)O)[C@@H](C)O)[C@@H](C)CC)[C@@H](C)CC)C(C)C)C(=O)N[C@@H](C)C(=O)NCC(=O)NCC(=O)N1CCC[C@H]1C(=O)N[C@@H](CO)C(=O)N[C@@H](CO)C(=O)NCC(=O)N[C@@H](C)C(=O)N1CCC[C@H]1C(=O)N1CCC[C@H]1C(=O)N1CCC[C@H]1C(=O)N[C@@H](CO)C(N)=O [Tirzepatide] | – | – | 129 nM | – | – | – | – | N.B. | N.B. | N.B.
